Data on two molecules can be found in US8088805B2, “Inhibitors of histone deacetylase” (MethylGene Inc., priority 2004, dated 2012).

The test system of assay [1] is A549 lung cancer cells. Description: Human tumor xenograft in vivo, A549. The settings on record: mice. How it is done:
(§1) Eight to ten week old female BCD1 mice (Taconic Labs, Great Barrington, N.Y.) were injected subcutaneously in the flank area with 2×10^6 preconditioned HCT116 human colorectal carcinoma cells, SW48 colon cancer cells, and A549 lung cancer cells. Preconditioning of these cells was done by a minimum of three consecutive tumor transplantations in the same strain of nude mice. Subsequently, tumor fragments of approximately 30 mgs were excised and implanted subcutaneously in mice, in the left flank area, under Forene anesthesia (Abbott Labs, Geneva, Switzerland). When the tumors reached a mean volume of 100 mm^3, the mice were treated intraperitoneally by daily injection, with a solution of the histone deacetylase inhibitor in DMSO, at a starting dose of 10 mg/kg. The optimal dose of the HDAC inhibitor was established by dose response experiments according to standard protocols. Tumor volume was calculated every second day post infusion according to standard methods (e.g., Meyer et al., Int. J. Cancer 43: 851-856 (1989)).

The subject of assay [2] is HCT116 cells. Nature of the assay: MTT assay. Format: cell-based. To be noted: Homo sapiens, HCT-116, 72 hours. How it is done: HCT116 cells (2000/well) were plated into 96-well tissue culture plates one day before compound treatment. Compounds at various concentrations were added to the cells. The cells were incubated for 72 hours at 37° C. in 5% CO2 incubator. MTT (3-[4,5-dimethylthiazol-2-yl]-2,5diphenyl tetrazolium bromide, Sigma) was added at a final concentration of 0.5 mg/ml and incubated with the cells for 4 hours before one volume of solubilization buffer (50% N,N-dimethylformamide, 20% SDS, pH 4.7) was added onto the cultured cells. After overnight incubation, solubilized dye was quantified by colorimetric reading at 570 nM using a reference at 630 nM using an MR700 plate reader (Dynatech Laboratories Inc.). OD values were converted to cell numbers according to a standard growth curve of the relevant cell line. The concentration which reduces cell numbers to 50% of that of solvent treated cells is determined as MTT IC50. In Table 14, “a” indicates activity of ≦0.1 μM, “b” indicates activity of ≦1 μM, and “c” indicates activity of ≦5 μM.
For orientation: Tetrazolium dyes change colour on reduction, which living cells bring about.

In assay [3] the target is T1, cloned recombinant human HDAC-1 enzyme (Homo sapiens, UniProt Q13547).
T1 construct: made in house; host or cells: Baculovirus insect cell expression system
T1 sequence (Q13547 whole entry): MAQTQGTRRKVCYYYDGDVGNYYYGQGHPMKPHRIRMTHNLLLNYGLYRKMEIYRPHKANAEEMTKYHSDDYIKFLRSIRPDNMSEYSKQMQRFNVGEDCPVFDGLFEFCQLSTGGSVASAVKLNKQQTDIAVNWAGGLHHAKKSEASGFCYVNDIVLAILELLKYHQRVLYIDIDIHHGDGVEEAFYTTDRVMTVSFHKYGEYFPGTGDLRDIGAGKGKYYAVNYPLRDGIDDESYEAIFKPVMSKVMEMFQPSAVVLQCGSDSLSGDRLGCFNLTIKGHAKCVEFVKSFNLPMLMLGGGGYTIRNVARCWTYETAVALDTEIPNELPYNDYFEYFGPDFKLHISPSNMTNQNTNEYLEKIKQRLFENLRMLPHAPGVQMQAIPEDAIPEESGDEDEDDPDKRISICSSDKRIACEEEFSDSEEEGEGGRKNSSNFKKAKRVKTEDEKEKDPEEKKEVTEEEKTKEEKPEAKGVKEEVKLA
Description: HDAC-1 enzymatic inhibition, Assay 1 ([3H]-acetylated histone substrate). The assay is classed as biochemical. The settings on record: Assay 1: [3H]-labeled acetylated histone substrate, recombinant hHDAC-1. How it is done: Assay 1. HDAC inhibitors were screened against a cloned recombinant human HDAC-1 enzyme expressed and purified from a Baculovirus insect cell expression system. For deacetylase assays, 20,000 cpm of the [^3H]-metabolically labeled acetylated histone substrate (M. Yoshida et al., J. Biol. Chem. 265(28): 17174-17179 (1990)) was incubated with 30 μg of the cloned recombinant hHDAC-1 for 10 minutes at 37° C. The reaction was stopped by adding acetic acid (0.04 M, final concentration) and HCl (250 mM, final concentration). The mixture was extracted with ethyl acetate and the released [^3H]-acetic acid was quantified by scintillation counting. For inhibition studies, the enzyme was preincubated with compounds at 4° C. for 30 minutes prior to initiation of the enzymatic assay. IC50 values for HDAC enzyme inhibitors were determined by performing dose response curves with individual compounds and determining the concentration of inhibitor producing fifty percent of the maximal inhibition.
Assay 1 was used to measure HDAC activity of compounds 10c, 13e, 16d, 26b, 44, 47, 61a, 61b, 63, 134, 138, and 308. Assay 2 was used to measure HDAC activity of compounds 361, 366, 367, 368, 369, 370, 371, 372, 373, 374, 375, 376, 377, and 378. In Table 14, “a” indicates activity of ≦0.1 μM, “b” indicates activity of ≦1 μM, “c” indicates activity of ≦5 μM, and “d” indicates activity of >5 μm. For the H4-Ac T24 EC vs. MS-275 assay in Table 14, “u” indicates less than 1, “v” indicates 1, and “w” indicates greater than 1. For the H3 Ac t24 assay in Table 14, “x” indicates activity of ≦1 μM, “y” indicates activity of ≦10 μM, and “z” indicates activity of ≦20 μM.

The subject of assay [4] is Histone H4 acetylation in T24 human bladder cancer cells. Nature of the assay: Histone H4 acetylation in whole cells by immunoblots. Format: cell-based. The settings on record: ratio of EC50 of compound to EC50 of control MS-275, 16 h. How it is done:
T24 human bladder cancer cells growing in culture were incubated with HDAC inhibitors for 16 h. Histones were extracted from the cells after the culture period as described by M. Yoshida et al. (J. Biol. Chem. 265(28): 17174-17179 (1990)). […] of total histone protein was loaded onto SDS/PAGE and transferred to nitrocellulose membranes. Membranes were probed with polyclonal antibodies specific for acetylated histone H-4 (Upstate Biotech Inc.), followed by horse radish peroxidase conjugated secondary antibodies (Sigma). Enhanced Chemiluminescence (ECL) (Amersham) detection was performed using Kodak films (Eastman Kodak). Acetylated H-4 signal was quantified by densitometry. Data are presented as the ratio of the concentration effective for […] the acetylated H-4 signal by 50% (EC50) using the indicated compound of the invention to a control compound, MS-275. If the indicated ratio is 1, then the compound of the invention is as effective as the MS-275 control compound. […] Further information regarding the MS-275 compound can be found in Suzuki et al., J. Med. Chem. 1999, pp. 3001-3003.
(In general: Immunoblotting shows a protein as a band on a membrane.)

The subject of assay [5] is HCT116 human colorectal carcinoma cells. Description: Human tumor xenograft in vivo, HCT116. To be noted: Mus musculus, HCT-116; 30 mg/kg ip, mice; read-out: % Inhibition (relative to vehicle control) HCT116. How it is done: as §1
On the technique in general: In xenograft studies the graft and the host belong to different species.

Assay [6] has as its system SW48 colon cancer cells. Nature of the assay: Human tumor xenograft in vivo, SW48. To be noted: Mus musculus, 40 mg/kg ip, mice, read-out: % Inhibition (relative to vehicle control) SW48. Here is the method: as §1

As to `CN(C)CCOc1ccc2nc(NCc3ccc(C(=O)Nc4ccccc4N)cc3)sc2c1` [compound 138, N-(2-Amino-phenyl)-4-{[6-(2-dimethylamino-ethoxy)-benzothiazol-2-ylamino]-methyl}-benzamide], the “% Inhibition (relative to vehicle control) A549” value in assay [1] (30 mg/kg ip) is listed as 83.7%. In addition, the IC50 (in general, the concentration that inhibits the measured activity by half) in assay [2] is ≤ 100 nM; in assay [3] it was 1000 to 5000 nM. Moreover, in assay [4], the “H4-Ac T24 EC vs. MS-275” value was “u (“u” indicates less than 1)”. In addition, the inhibition in vivo at 30 mg/kg in assay [5] was 79.8%.

With `Nc1ccccc1NC(=O)c1ccc(CNc2nccc(-c3ccccn3)n2)cc1` [26b, N-(2-Amino-phenyl)-4-[(4-pyridin-2-yl-pyrimidin-2-ylamino)-methyl]-benzamide], the inhibition in vivo at 40 mg/kg in assay [6] is 75.1%. Moreover, the “% Inhibition (relative to vehicle control) A549” value in assay [1] (40 mg/kg ip) is reported as 74.4%. Further, the IC50 is ≤ 100 nM in assay [2] and 1000 to 5000 nM in assay [3]. The “H4-Ac T24 EC vs. MS-275” value in assay [4] is listed as “v (“v” indicates 1)”.
